Data published in patent publication US7820825B2, “N-substituted-azacyclylamines as histamine-3 antagonists” (Wyeth LLC, priority 2006, dated 2010).

Structure (SMILES)	melting point
Cn1cc(Cc2ccc(C(=O)N3CC[C@H](N4CCCC4)C3)cc2)c2ccccc21 [Example 229, (3′S)-1-{4-[(1-methyl-1H-indol-3-yl)methyl]benzoyl}-1,3′-bipyrrolidine]	73 to 78 °C
CN(C)[C@H]1CCN(C(=O)c2ccc(Cc3cn(C)c4ccccc34)cc2)C1 [Example 230, (3S)-N,N-dimethyl-1-{4-[(1-methyl-1H-indol-3-yl)methyl]benzoyl}pyrrolidin-3-amine]	101 to 105 °C
